# Measured values: ChEMBL document CHEMBL6078713, “Synthesis and mechanistic studies of 4-aminoquinoline-Isatin molecular hybrids and Schiff's bases as promising antimicrobial agents” (Eur J Med Chem, 2025)
# Legend:
# Escherichia coli [1] = experiment: Antibacterial activity against Escherichia coli clinical isolate ECJH6 assessed as diameter of zone of inhibition by disk diffusion assay; format: functional
# Escherichia coli [2] = experiment: Antibacterial activity against Escherichia coli clinical isolate ECJH19 assessed as diameter of zone of inhibition by disk diffusion assay; format: functional
# Escherichia coli [3] = experiment: Antibacterial activity against Escherichia coli clinical isolate ECJH25 assessed as diameter of zone of inhibition by disk diffusion assay; format: functional
# Escherichia coli [4] = experiment: Antibacterial activity against Escherichia coli clinical isolate ECJH8 assessed as diameter of zone of inhibition by disk diffusion assay; format: functional
# Escherichia coli [5] = experiment: Antibacterial activity against Escherichia coli clinical isolate ECJH5 assessed as diameter of zone of inhibition by disk diffusion assay; format: functional
# Escherichia coli [6] = experiment: Antibacterial activity against Escherichia coli clinical isolate ECJH2 assessed as diameter of zone of inhibition by disk diffusion assay; format: functional
# Escherichia coli [7] = experiment: Antibacterial activity against Escherichia coli clinical isolate ECJH17 assessed as diameter of zone of inhibition by disk diffusion assay; format: functional
# Escherichia coli [8] = experiment: Antibacterial activity against Escherichia coli clinical isolate ECJH9 assessed as diameter of zone of inhibition by disk diffusion assay; format: functional
# Escherichia coli [9] = experiment: Antibacterial activity against Escherichia coli clinical isolate ECJH10 assessed as diameter of zone of inhibition by disk diffusion assay; format: functional
# Escherichia coli [10] = experiment: Antibacterial activity against Escherichia coli clinical isolate ECJH23 assessed as diameter of zone of inhibition by disk diffusion assay; format: functional
# Escherichia coli [11] = experiment: Antibacterial activity against Escherichia coli clinical isolate ECJH21 assessed as diameter of zone of inhibition by disk diffusion assay; format: functional
# Escherichia coli [12] = experiment: Antibacterial activity against Escherichia coli clinical isolate ECJH11 assessed as diameter of zone of inhibition by disk diffusion assay; format: functional
# Escherichia coli [13] = experiment: Antibacterial activity against Escherichia coli clinical isolate ECJH16 assessed as diameter of zone of inhibition by disk diffusion assay; format: functional
# Escherichia coli [14] = experiment: Antibacterial activity against Escherichia coli clinical isolate ECJH15 assessed as diameter of zone of inhibition by disk diffusion assay; format: functional
# Escherichia coli [15] = experiment: Antibacterial activity against Escherichia coli clinical isolate ECJH24 assessed as diameter of zone of inhibition by disk diffusion assay; format: functional
# Escherichia coli [16] = experiment: Antibacterial activity against Escherichia coli clinical isolate ECJH7 assessed as diameter of zone of inhibition by disk diffusion assay; format: functional
# Escherichia coli [17] = experiment: Antibacterial activity against Escherichia coli clinical isolate ECJH18 assessed as diameter of zone of inhibition by disk diffusion assay; format: functional
# Escherichia coli [18] = experiment: Antibacterial activity against Escherichia coli clinical isolate ECJH3 assessed as diameter of zone of inhibition by disk diffusion assay; format: functional
# Escherichia coli [19] = experiment: Ratio of MBC for antibacterial activity against Escherichia coli MTCC 443 to MIC for bactericidal activity against Escherichia coli MTCC 443; format: functional
# Pseudomonas aeruginosa [20] = experiment: Antibacterial activity against Pseudomonas aeruginosa MTCC 2453 assessed as diameter of zone of inhibition at 500 ug/ml by agar disk diffusion method; format: functional; conditions: read-out: DIZ
# Enterococcus faecalis [21] = experiment: Antibacterial activity against Enterococcus faecalis MTCC 439 assessed as diameter of zone of inhibition at 500 ug/ml by agar disk diffusion method; format: functional; conditions: read-out: DIZ
# Escherichia coli [22] = experiment: Antibacterial activity against Escherichia coli MTCC 443 assessed as diameter of zone of inhibition at 500 ug/ml by agar disk diffusion method; format: functional; conditions: read-out: DIZ
# Staphylococcus aureus [23] = experiment: Antibacterial activity against Staphylococcus aureus MTCC 902 assessed as diameter of zone of inhibition at 500 ug/ml by agar disk diffusion method; format: functional; conditions: read-out: DIZ
# Enterococcus faecalis [24] = experiment: Antibacterial activity against Enterococcus faecalis MTCC 439 assessed as inhibition of bacterial growth incubated overnight by serial dilution based spectrophotometer; format: functional
# Bacillus subtilis [25] = experiment: Bactericidal activity against Bacillus subtilis MTCC 736 assessed as inhibition of bacterial growth incubated overnight; format: functional
# Salmonella typhi [26] = experiment: Antibacterial activity against Salmonella typhi assessed as inhibition of bacterial growth incubated overnight by serial dilution based spectrophotometer; format: functional, Salmonella enterica subsp. enterica serovar Typhi; conditions: Salmonella enterica
# Escherichia coli [27] = experiment: Antibacterial activity against Escherichia coli MTCC 443 assessed as inhibition of bacterial growth incubated overnight by serial dilution based spectrophotometer; format: functional
# Staphylococcus aureus [28] = experiment: Bactericidal activity against Staphylococcus aureus MTCC 902 assessed as inhibition of bacterial growth incubated overnight; format: functional
# Bacillus subtilis [29] = experiment: Ratio of MBC for antibacterial activity against Bacillus subtilis MTCC 736 to MIC for bactericidal activity against Bacillus subtilis MTCC 736; format: functional
# Pseudomonas aeruginosa [30] = experiment: Bactericidal activity against Pseudomonas aeruginosa MTCC 2453 assessed as inhibition of bacterial growth incubated overnight; format: functional
# Salmonella typhi [31] = experiment: Antibacterial activity against Salmonella typhi assessed as diameter of zone of inhibition at 500 ug/ml by agar disk diffusion method; format: functional, Salmonella enterica subsp. enterica serovar Typhi; conditions: Salmonella enterica, read-out: DIZ
# Enterococcus faecalis [32] = experiment: Bactericidal activity against Enterococcus faecalis MTCC 439 assessed as inhibition of bacterial growth incubated overnight; format: functional
# Salmonella typhi [33] = experiment: Bactericidal activity against Salmonella typhi assessed as inhibition of bacterial growth incubated overnight; format: functional, Salmonella enterica subsp. enterica serovar Typhi; conditions: Salmonella enterica
# Escherichia coli [34] = experiment: Bactericidal activity against Escherichia coli MTCC 443 assessed as inhibition of bacterial growth incubated overnight; format: functional
# Pseudomonas aeruginosa [35] = experiment: Antibacterial activity against Pseudomonas aeruginosa MTCC 2453 assessed as inhibition of bacterial growth incubated overnight by serial dilution based spectrophotometer; format: functional
# Bacillus subtilis [36] = experiment: Antibacterial activity against Bacillus subtilis MTCC 736 assessed as diameter of zone of inhibition at 500 ug/ml by agar disk diffusion method; format: functional; conditions: read-out: DIZ
# Bacillus subtilis [37] = experiment: Antibacterial activity against Bacillus subtilis MTCC 736 assessed as inhibition of bacterial growth incubated overnight by serial dilution based spectrophotometer; format: functional
# Staphylococcus aureus [38] = experiment: Antibacterial activity against Staphylococcus aureus MTCC 902 assessed as inhibition of bacterial growth incubated overnight by serial dilution based spectrophotometer; format: functional
# Staphylococcus aureus [39] = experiment: Ratio of MBC for antibacterial activity against Staphylococcus aureus MTCC 902 to MIC for bactericidal activity against Staphylococcus aureus MTCC 902; format: functional
# Staphylococcus aureus [40] = experiment: Antibacterial activity against Staphylococcus aureus assessed as inhibition of bacterial growth; format: functional
structure (smiles),measurement,setting,value
CC1(C)S[C@@H]2[C@H](NC(=O)[C@H](N)c3ccccc3)C(=O)N2[C@H]1C(=O)O [AMPICILLIN],diameter of the inhibition zone (DIZ),Escherichia coli [1],14 mm
same,diameter of the inhibition zone (DIZ),Escherichia coli [2],17 mm
same,diameter of the inhibition zone (DIZ),Escherichia coli [3],22 mm
same,diameter of the inhibition zone (DIZ),Escherichia coli [4],21 mm
same,diameter of the inhibition zone (DIZ),Escherichia coli [5],18 mm
same,diameter of the inhibition zone (DIZ),Escherichia coli [6],22 mm
same,diameter of the inhibition zone (DIZ),Escherichia coli [7],16 mm
same,diameter of the inhibition zone (DIZ),Escherichia coli [8],16 mm
same,diameter of the inhibition zone (DIZ),Escherichia coli [9],18 mm
same,diameter of the inhibition zone (DIZ),Escherichia coli [10],20 mm
same,diameter of the inhibition zone (DIZ),Escherichia coli [11],18 mm
same,diameter of the inhibition zone (DIZ),Escherichia coli [12],21 mm
same,diameter of the inhibition zone (DIZ),Escherichia coli [13],17 mm
same,diameter of the inhibition zone (DIZ),Escherichia coli [14],20 mm
same,diameter of the inhibition zone (DIZ),Escherichia coli [15],22 mm
same,diameter of the inhibition zone (DIZ),Escherichia coli [16],24 mm
same,diameter of the inhibition zone (DIZ),Escherichia coli [17],17 mm
same,diameter of the inhibition zone (DIZ),Escherichia coli [18],19 mm
Clc1ccc2c(NCC/N=C/c3ccco3)ccnc2c1,Ratio,Escherichia coli [19],1
same,zone of inhibition at 500 µg/mL,Pseudomonas aeruginosa [20],9 mm
same,zone of inhibition at 500 µg/mL,Enterococcus faecalis [21],9 mm
same,zone of inhibition at 500 µg/mL,Escherichia coli [22],9 mm
same,zone of inhibition at 500 µg/mL,Staphylococcus aureus [23],10 mm
same,MIC,Enterococcus faecalis [24],512 µg/mL
same,MBC,Bacillus subtilis [25],256 µg/mL
same,MIC,Salmonella typhi [26],512 µg/mL
same,MIC,Escherichia coli [27],512 µg/mL
same,MBC,Staphylococcus aureus [28],256 µg/mL
same,Ratio,Bacillus subtilis [29],1
same,MBC,Pseudomonas aeruginosa [30],> 512 µg/mL
same,zone of inhibition at 500 µg/mL,Salmonella typhi [31],9 mm
same,MBC,Enterococcus faecalis [32],> 512 µg/mL
same,MBC,Salmonella typhi [33],> 512 µg/mL
same,MBC,Escherichia coli [34],512 µg/mL
same,MIC,Pseudomonas aeruginosa [35],512 µg/mL
same,zone of inhibition at 500 µg/mL,Bacillus subtilis [36],10 mm
same,MIC,Bacillus subtilis [37],256 µg/mL
same,MIC,Staphylococcus aureus [38],256 µg/mL
same,Ratio,Staphylococcus aureus [39],1
CCCCCCCCCCCCOC(=O)c1cc(OCCCCCCCCCCCC)nc2ccccc12,MIC,Staphylococcus aureus [40],6.25 µg/mL
CC(NC1=NC(c2cc3cc(OCc4cccc(Cl)c4)ccc3nc2O)N=CN1)c1ccccc1 (stereo unspecified),MIC,Staphylococcus aureus [40],2 µg/mL
